Experimental data: the supplement of paper PMC10307832

What was measured:
Experiment in all cases: relative viability (nuclei count vs DMSO), 5 days (fraction); higher = more cells survive
SW 1573 = test system: SW 1573
Outline: (§1)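 After 5 days of treatment, lung cancer cells in 1536-well plates were fixed and stained in a single step (final 0.05% Triton X-100, 1% formaldehyde, 1 ug/ml Hoechst) and their nuclei counted on 4× images. Treatment had been applied by pin tool the day after seeding as one drug alone or as a fixed anchor-drug dose with five library-drug doses (not always all listed) in √10 steps. Relative viability is the nuclei count of treated wells divided by that of vehicle wells, and values are medians of duplicate plates.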

NCI-H1355 = test system: NCI-H1355
Outline: as §1

SK-LU-1 = test system: SK-LU-1
Outline: as §1

NCI-H1650 = test system: NCI-H1650
Outline: as §1

UMC-11 = test system: UMC-11
Outline: as §1

EKVX = test system: EKVX
Outline: as §1

NCI-H520 = test system: NCI-H520
Outline: as §1

NCI-H1792 = test system: NCI-H1792
Outline: as §1

NCI-H2342 = test system: NCI-H2342
Outline: as §1

EMC-BAC-2 = test system: EMC-BAC-2
Outline: as §1

CAL-12T = test system: CAL-12T
Outline: as §1

NCI-H2009 = test system: NCI-H2009
Outline: as §1

NCI-H2085 = test system: NCI-H2085
Outline: as §1

NCI-H522 = test system: NCI-H522
Outline: as §1

NCI-H661 = test system: NCI-H661
Outline: as §1

SK-MES-1 = test system: SK-MES-1
Outline: as §1

NCI-H2087 = test system: NCI-H2087
Outline: as §1

BEN = test system: BEN
Outline: as §1

LC-2-ad = test system: LC-2-ad
Outline: as §1

NCI-H1734 = test system: NCI-H1734
Outline: as §1

H3255 = test system: H3255
Outline: as §1

NCI-H838 = test system: NCI-H838
Outline: as §1

LU99A = test system: LU99A
Outline: as §1

NCI-H1993 = test system: NCI-H1993
Outline: as §1

In the case of `Nc1cccc2c1CN(C1CCC(=O)NC1=O)C2=O` (stereo not given) [Lenalidomide] + CC(=O)Nc1cccc(-n2c(=O)n(C3CC3)c(=O)c3c(Nc4ccc(I)cc4F)n(C)c(=O)c(C)c32)c1 [Trametinib] (partner 0.02 µM), the relative viability (SW 1573; first compound 0.253 µM) is reported as 0.583, the relative viability (SW 1573; first compound 0.8 µM) is reported as 0.67 and the relative viability (SW 1573; first compound 2.53 µM) is reported as 0.583. It also gave a relative viability (SW 1573; first compound 8 µM) of 0.596, a relative viability (NCI-H1355; first compound 0.253 µM) of 0.431 and a relative viability (NCI-H1355; first compound 0.8 µM) of 0.316. The relative viability (NCI-H1355; first compound 2.53 µM) was 0.402, the relative viability (NCI-H1355; first compound 8 µM) was 0.267 and the relative viability (SK-LU-1; first compound 0.253 µM) was 0.515. It also gave a relative viability (SK-LU-1; first compound 0.8 µM) of 0.443, a relative viability (SK-LU-1; first compound 2.53 µM) of 0.596 and a relative viability (SK-LU-1; first compound 8 µM) of 0.432. It also gave a relative viability (NCI-H1650; first compound 0.253 µM) of 0.421, a relative viability (NCI-H1650; first compound 0.8 µM) of 0.432 and a relative viability (NCI-H1650; first compound 2.53 µM) of 0.551. The relative viability (NCI-H1650; first compound 8 µM) was 0.684, the relative viability (UMC-11; first compound 0.253 µM) was 0.514 and the relative viability (UMC-11; first compound 0.8 µM) was 0.449. The relative viability (UMC-11; first compound 2.53 µM) was 0.885, the relative viability (UMC-11; first compound 8 µM) was 0.472 and the relative viability (EKVX; first compound 0.253 µM) was 0.391. The relative viability (EKVX; first compound 0.8 µM) was 0.32, the relative viability (EKVX; first compound 2.53 µM) was 0.432 and the relative viability (EKVX; first compound 8 µM) was 0.328. For the same compound, the relative viability (NCI-H520; first compound 0.253 µM) was 0.732, the relative viability (NCI-H520; first compound 0.8 µM) was 0.615 and the relative viability (NCI-H520; first compound 2.53 µM) was 0.835. It also gave a relative viability (NCI-H520; first compound 8 µM) of 0.452, a relative viability (NCI-H1792; first compound 0.253 µM) of 0.445 and a relative viability (NCI-H1792; first compound 0.8 µM) of 0.369. For the same compound, the relative viability (NCI-H1792; first compound 2.53 µM) was 0.59, the relative viability (NCI-H1792; first compound 8 µM) was 0.366 and the relative viability (NCI-H2342; first compound 0.253 µM) was 0.796. The relative viability (NCI-H2342; first compound 0.8 µM) was 0.894, the relative viability (NCI-H2342; first compound 2.53 µM) was 0.739 and the relative viability (NCI-H2342; first compound 8 µM) was 0.692. For the same compound, the relative viability (EMC-BAC-2; first compound 0.253 µM) was 0.888, the relative viability (EMC-BAC-2; first compound 0.8 µM) was 0.848 and the relative viability (EMC-BAC-2; first compound 2.53 µM) was 0.922. It also gave a relative viability (EMC-BAC-2; first compound 8 µM) of 0.747, a relative viability (CAL-12T; first compound 0.253 µM) of 0.371 and a relative viability (CAL-12T; first compound 0.8 µM) of 0.292. For the same compound, the relative viability (CAL-12T; first compound 2.53 µM) was 0.431, the relative viability (CAL-12T; first compound 8 µM) was 0.306 and the relative viability (NCI-H2009; first compound 0.253 µM) was 0.297. The relative viability (NCI-H2009; first compound 0.8 µM) was 0.28, the relative viability (NCI-H2009; first compound 2.53 µM) was 0.283 and the relative viability (NCI-H2009; first compound 8 µM) was 0.28. For the same compound, the relative viability (NCI-H2085; first compound 0.253 µM) was 0.507, the relative viability (NCI-H2085; first compound 0.8 µM) was 0.405 and the relative viability (NCI-H2085; first compound 2.53 µM) was 0.515. The relative viability (NCI-H2085; first compound 8 µM) was 0.464, the relative viability (NCI-H522; first compound 0.253 µM) was 0.813 and the relative viability (NCI-H522; first compound 0.8 µM) was 0.803. The relative viability (NCI-H522; first compound 2.53 µM) was 0.725, the relative viability (NCI-H522; first compound 8 µM) was 0.623 and the relative viability (NCI-H661; first compound 0.253 µM) was 0.529. It also gave a relative viability (NCI-H661; first compound 0.8 µM) of 0.593, a relative viability (NCI-H661; first compound 2.53 µM) of 0.591 and a relative viability (NCI-H661; first compound 8 µM) of 0.533. For the same compound, the relative viability (SK-MES-1; first compound 0.253 µM) was 0.599, the relative viability (SK-MES-1; first compound 0.8 µM) was 0.628 and the relative viability (SK-MES-1; first compound 2.53 µM) was 0.568. For the same compound, the relative viability (SK-MES-1; first compound 8 µM) was 0.578, the relative viability (NCI-H2087; first compound 0.253 µM) was 0.191 and the relative viability (NCI-H2087; first compound 2.53 µM) was 0.28. For the same compound, the relative viability (NCI-H2087; first compound 8 µM) was 0.186, the relative viability (BEN; first compound 0.253 µM) was 1.1 and the relative viability (BEN; first compound 0.8 µM) was 1.07. For the same compound, the relative viability (BEN; first compound 2.53 µM) was 1.18, the relative viability (BEN; first compound 8 µM) was 0.913 and the relative viability (LC-2-ad; first compound 0.253 µM) was 0.868. For the same compound, the relative viability (LC-2-ad; first compound 0.8 µM) was 0.943, the relative viability (LC-2-ad; first compound 2.53 µM) was 0.972 and the relative viability (LC-2-ad; first compound 8 µM) was 0.968. The relative viability (NCI-H1734; first compound 0.253 µM) was 0.69, the relative viability (NCI-H1734; first compound 0.8 µM) was 0.606 and the relative viability (NCI-H1734; first compound 2.53 µM) was 0.702. The relative viability (NCI-H1734; first compound 8 µM) was 0.605, the relative viability (H3255; first compound 0.253 µM) was 0.547 and the relative viability (H3255; first compound 0.8 µM) was 0.624. It also gave a relative viability (H3255; first compound 2.53 µM) of 0.661, a relative viability (H3255; first compound 8 µM) of 0.541 and a relative viability (NCI-H838; first compound 0.253 µM) of 0.517. For the same compound, the relative viability (NCI-H838; first compound 0.8 µM) was 0.463, the relative viability (NCI-H838; first compound 2.53 µM) was 0.625 and the relative viability (NCI-H838; first compound 8 µM) was 0.378. It also gave a relative viability (LU99A; first compound 0.253 µM) of 0.509, a relative viability (LU99A; first compound 0.8 µM) of 0.537 and a relative viability (LU99A; first compound 2.53 µM) of 0.644. It also gave a relative viability (LU99A; first compound 8 µM) of 0.425, a relative viability (NCI-H1993; first compound 0.253 µM) of 0.491 and a relative viability (NCI-H1993; first compound 0.8 µM) of 0.503. The relative viability (NCI-H1993; first compound 2.53 µM) was 0.474 and the relative viability (NCI-H1993; first compound 8 µM) was 0.518.
